Data published in ChEMBL document CHEMBL2074240, “VX-710 (biricodar) increases drug retention and enhances chemosensitivity in resistant cells overexpressing P-glycoprotein, multidrug resistance protein, and breast cancer resistance protein” (Clin Cancer Res, 2004).

Target: ATP-dependent translocase ABCB1 (Homo sapiens, UniProt P08183)
Experiment: TP_TRANSPORTER: increase in mitoxantrone intracellular accumulation (Mitoxantrone: 3 uM, VX-710: 2.5 uM) in A2780/Dx5b cells
Assay type: functional, cell-based

Chain of ATP-dependent translocase ABCB1 (P08183 whole entry): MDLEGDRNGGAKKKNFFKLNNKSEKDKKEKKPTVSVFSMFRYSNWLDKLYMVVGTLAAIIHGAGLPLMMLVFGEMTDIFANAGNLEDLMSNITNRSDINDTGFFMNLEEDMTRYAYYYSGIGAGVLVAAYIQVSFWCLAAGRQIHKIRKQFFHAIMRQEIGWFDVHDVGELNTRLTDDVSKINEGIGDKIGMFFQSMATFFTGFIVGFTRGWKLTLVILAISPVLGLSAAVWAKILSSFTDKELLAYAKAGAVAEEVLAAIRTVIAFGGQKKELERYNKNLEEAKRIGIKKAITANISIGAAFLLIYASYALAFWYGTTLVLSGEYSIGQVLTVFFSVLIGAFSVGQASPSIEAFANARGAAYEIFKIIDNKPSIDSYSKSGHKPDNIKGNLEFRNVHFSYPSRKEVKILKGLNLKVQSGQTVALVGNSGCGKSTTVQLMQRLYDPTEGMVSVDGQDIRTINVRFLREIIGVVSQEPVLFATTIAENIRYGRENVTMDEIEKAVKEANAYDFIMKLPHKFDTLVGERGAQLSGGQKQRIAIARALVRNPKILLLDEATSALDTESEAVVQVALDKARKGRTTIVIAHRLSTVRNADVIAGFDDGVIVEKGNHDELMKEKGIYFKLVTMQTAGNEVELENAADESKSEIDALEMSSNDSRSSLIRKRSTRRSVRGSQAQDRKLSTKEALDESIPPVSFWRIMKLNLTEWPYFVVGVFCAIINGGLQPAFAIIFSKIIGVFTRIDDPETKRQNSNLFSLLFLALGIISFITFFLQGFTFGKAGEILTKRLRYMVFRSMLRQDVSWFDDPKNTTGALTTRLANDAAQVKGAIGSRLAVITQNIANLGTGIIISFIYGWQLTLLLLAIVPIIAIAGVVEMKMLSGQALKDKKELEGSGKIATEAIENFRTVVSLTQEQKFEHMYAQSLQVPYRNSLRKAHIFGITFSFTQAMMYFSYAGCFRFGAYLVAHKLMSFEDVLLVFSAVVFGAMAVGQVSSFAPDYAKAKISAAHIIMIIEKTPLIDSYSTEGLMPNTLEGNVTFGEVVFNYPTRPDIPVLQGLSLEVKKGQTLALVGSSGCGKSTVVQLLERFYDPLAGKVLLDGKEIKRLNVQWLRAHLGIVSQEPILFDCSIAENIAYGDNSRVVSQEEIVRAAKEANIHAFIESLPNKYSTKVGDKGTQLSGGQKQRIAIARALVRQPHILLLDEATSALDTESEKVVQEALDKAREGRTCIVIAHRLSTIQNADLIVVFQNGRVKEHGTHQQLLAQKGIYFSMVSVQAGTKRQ

COc1cc(C(=O)C(=O)N2CCCC[C@H]2C(=O)OC(CCCc2cccnc2)CCCc2cccnc2)cc(OC)c1OC [BIRICODAR]
Activity: inhibitor [+]
